Experimental data reported in PubChem BioAssay (NCI).
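Cells were grown in 96-well plates and exposed to each compound for 48 hours at five concentrations; endpoints were interpolated linearly between bracketing concentrations, or set to the highest concentration if not reached. At the GI50, growth is halved. TGI: total growth inhibition.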

tested on: 786-0 renal; experiment: NCI-60 cell line screen, 48 h

Compound | TGI [µM]
CN1Cc2c(nc(-c3ccccc3)c[n+]2[O-])N(C)C1 | > 100
C=C(CN(C)C)C(=O)c1ccc(C(=O)C(=C)CN(C)C)cc1 | > 100
O=C1c2cccc3cccc(c23)C(=O)N1CCCNCCCCNCCCNCCCN1C(=O)c2cccc3cccc(c23)C1=O | 1.36
O=c1onc2n1-c1cc(Cl)ccc1C(=S)N1CSCC21 (stereo unspecified) | > 100
O=C(O)C(O)C(O)C(O)C(O)CO (stereo unspecified) | > 100
CSc1nc2c(c(N(C)C)n1)C(O)n1c(nc3ccccc31)S2 (stereo unspecified) | > 100
COc1ccc(-c2nc3ccccc3c(=S)n2OC(C)=O)cc1 | > 25
C[C@@H]1CCC2[C@@H](C)[C@@H](O[C@H]3O[C@@H]4O[C@@]5(C)CCC6[C@H](C)CCC([C@H]3C)[C@]64OO5)O[C@@H]3O[C@@]4(C)CCC1[C@@]23OO4 (stereo partly specified) | > 25
O=C(c1ccccc1)c1ccc2c(c1)NC(=O)c1ccccc1SSc1ccccc1C(=O)N2 | > 100
CC1=C(C#N)c2nc3ccccc3n2C(=O)C1(C)CCO (stereo unspecified) | > 100
CCN(CC)c1ccc(/C=C/c2ccnc3ccccc23)cc1 | > 100
COc1ccc(C(=O)NCCN(C)C)c2nc3ccccc3cc12 | 12.1
CC(C)(C)N=C(N)NC#N | > 100
N#CC(c1ccccc1)N(CCOCCOCCN(C(=O)c1ccccc1)C(C#N)c1ccccc1)C(=O)c1ccccc1 (stereo unspecified) | > 100
CN1CCN(Cc2cc3c(nn2)-c2ccccc2C3=O)CC1 | > 100
Cc1ccc(/C=C2/N=C(N/N=C\C(O)C(O)C(O)C(O)CO)NC2=O)cc1 (stereo unspecified) | > 100
CCN(C(=O)N[C@@H](C)C(=O)N[C@@H](Cc1ccccc1)C(=O)OC)c1ccccc1 | > 100
O=C(CCSC1=NCCCN1)c1ccc(F)cc1 | 14.1
Cn1c2ccccc2c2c(=S)c3ccccc3ccc21 | > 100
CCOc1c(OC)cc(-c2nc3n(n2)C(=O)C(CC)S3)cc1OC (stereo unspecified) | > 10
CC1OC(O[C@H]2C3C=CO[C@@H](OC4OC(CO)C(O)C(O)C4O)C3[C@@]3(COC(=O)/C=C/c4ccccc4)O[C@@H]23)C(O)C(O)C1O (stereo partly specified) | > 100
O=C1C(=Nc2ccc(Nc3ccccc3)cc2)Oc2ccccc21 | 3.37
Cc1nc2ccccc2c(-n2cccn2)c1CCn1cccn1 | > 100
COc1cc2c(cc1OCCCN1C(=O)c3cccc4cccc(c34)C1=O)N=C[C@@H]1CCCN1C2=O | 54.3
COC(=O)c1ccccc1CC1Cc2cccc(C)c2C1=O (stereo unspecified) | > 100
COc1ccc(/C=N/NC(=O)c2ccc(O)c(CN(C)C)c2)cc1 | > 100

tested on: CAKI-1 renal; experiment: NCI-60 cell line screen, 48 h

Compound | GI50 [µM] | TGI [µM]
C=CC1(C)CC(=O)C2(O)C(C)(O1)C(OC(C)=O)C(O)C1C(C)(C)CCC(O)C12C (stereo unspecified) | > 55.2 | 58.8
CN1Cc2c(nc(-c3ccccc3)c[n+]2[O-])N(C)C1 |  | > 100
C=C(CN(C)C)C(=O)c1ccc(C(=O)C(=C)CN(C)C)cc1 |  | > 100
O[C@H]1[C@H](O)[C@@H](O)CN2CC[C@H](O)[C@H]12 |  | > 100
O=C1c2cccc3cccc(c23)C(=O)N1CCCNCCCCNCCCNCCCN1C(=O)c2cccc3cccc(c23)C1=O |  | 17.3
O=c1onc2n1-c1cc(Cl)ccc1C(=S)N1CSCC21 (stereo unspecified) |  | > 100
COc1cc(C2c3cc4c(cc3[C@@H](Nc3ccccc3)C3COC(=O)[C@H]23)OCO4)cc(OC)c1O (stereo partly specified) |  | 1.68
O=C(O)C(O)C(O)C(O)C(O)CO (stereo unspecified) |  | > 100
CSc1nc2c(c(N(C)C)n1)C(O)n1c(nc3ccccc31)S2 (stereo unspecified) |  | > 100
O=C1NC(O)CCN1C1OC(CO)C(O)C1O (stereo unspecified) |  | > 250
COc1ccc(-c2nc3ccccc3c(=S)n2OC(C)=O)cc1 |  | > 25
C[C@@H]1CCC2[C@@H](C)[C@@H](O[C@H]3O[C@@H]4O[C@@]5(C)CCC6[C@H](C)CCC([C@H]3C)[C@]64OO5)O[C@@H]3O[C@@]4(C)CCC1[C@@]23OO4 (stereo partly specified) |  | > 25
O=C(c1ccccc1)c1ccc2c(c1)NC(=O)c1ccccc1SSc1ccccc1C(=O)N2 |  | > 100
CC1=C(C#N)c2nc3ccccc3n2C(=O)C1(C)CCO (stereo unspecified) |  | > 100
CCN(CC)c1ccc(/C=C/c2ccnc3ccccc23)cc1 |  | > 100
COc1ccc(C(=O)NCCN(C)C)c2nc3ccccc3cc12 |  | 7.59
CC(C)(C)N=C(N)NC#N |  | > 100

Compound | GI50 [µM] | TGI [µM]
N#CC(c1ccccc1)N(CCOCCOCCN(C(=O)c1ccccc1)C(C#N)c1ccccc1)C(=O)c1ccccc1 (stereo unspecified) |  | > 100
CN1CCN(Cc2cc3c(nn2)-c2ccccc2C3=O)CC1 |  | > 100
Cc1ccc(/C=C2/N=C(N/N=C\C(O)C(O)C(O)C(O)CO)NC2=O)cc1 (stereo unspecified) |  | > 100
CCN(C(=O)N[C@@H](C)C(=O)N[C@@H](Cc1ccccc1)C(=O)OC)c1ccccc1 |  | > 100
O=C(NN1C(=O)CS(=O)(=O)C1c1ccc(C(F)(F)F)cc1)c1ccncc1 (stereo unspecified) |  | > 100
O=C(CCSC1=NCCCN1)c1ccc(F)cc1 |  | 46.9
Cn1c2ccccc2c2c(=S)c3ccccc3ccc21 |  | > 100
CCOc1c(OC)cc(-c2nc3n(n2)C(=O)C(CC)S3)cc1OC (stereo unspecified) |  | > 10
CC1OC(O[C@H]2C3C=CO[C@@H](OC4OC(CO)C(O)C(O)C4O)C3[C@@]3(COC(=O)/C=C/c4ccccc4)O[C@@H]23)C(O)C(O)C1O (stereo partly specified) |  | > 100
O=C1C(=Nc2ccc(Nc3ccccc3)cc2)Oc2ccccc21 |  | 7.58
COc1ccc(CC(N)=O)cc1OC |  | > 575
CCOC(=O)CNC(=O)NC12CC3CC(CC(C3)C1)C2 |  | > 487
Cc1nc2ccccc2c(-n2cccn2)c1CCn1cccn1 |  | > 100
O=C(NCCCl)O/N=C/c1cccnc1 |  | > 100
COc1cc2c(cc1OCCCN1C(=O)c3cccc4cccc(c34)C1=O)N=C[C@@H]1CCCN1C2=O |  | > 58.1
COC(=O)c1ccccc1CC1Cc2cccc(C)c2C1=O (stereo unspecified) |  | > 100
COc1ccc(/C=N/NC(=O)c2ccc(O)c(CN(C)C)c2)cc1 |  | > 100

tested on: HOP-18 NSCLC; experiment: NCI-60 cell line screen, 48 h

Compound | TGI [µM]
C=CC1(C)CC(=O)C2(O)C(C)(O1)C(OC(C)=O)C(O)C1C(C)(C)CCC(O)C12C (stereo unspecified) | > 138
CN1Cc2c(nc(-c3ccccc3)c[n+]2[O-])N(C)C1 | > 100
C=C(CN(C)C)C(=O)c1ccc(C(=O)C(=C)CN(C)C)cc1 | > 100
O[C@H]1[C@H](O)[C@@H](O)CN2CC[C@H](O)[C@H]12 | > 100
COc1cc(C2c3cc4c(cc3[C@@H](Nc3ccccc3)C3COC(=O)[C@H]23)OCO4)cc(OC)c1O (stereo partly specified) | 22.6
O=C1NC(O)CCN1C1OC(CO)C(O)C1O (stereo unspecified) | > 250
O=C(NN1C(=O)CS(=O)(=O)C1c1ccc(C(F)(F)F)cc1)c1ccncc1 (stereo unspecified) | > 100
COc1ccc(CC(N)=O)cc1OC | > 1250
CCOC(=O)CNC(=O)NC12CC3CC(CC(C3)C1)C2 | 537
O=C(NCCCl)O/N=C/c1cccnc1 | > 100

tested on: IGROV1 ovarian; experiment: NCI-60 cell line screen, 48 h

Compound | GI50 [µM] | TGI [µM]
C=CC1(C)CC(=O)C2(O)C(C)(O1)C(OC(C)=O)C(O)C1C(C)(C)CCC(O)C12C (stereo unspecified) | > 77.2 | > 121
CN1Cc2c(nc(-c3ccccc3)c[n+]2[O-])N(C)C1 |  | > 100
C=C(CN(C)C)C(=O)c1ccc(C(=O)C(=C)CN(C)C)cc1 |  | > 100
O[C@H]1[C@H](O)[C@@H](O)CN2CC[C@H](O)[C@H]12 |  | > 100
